molecular target: DGAT1 (Homo sapiens); test: Inhibition of human DGAT1 assessed as conversion of [14C]-oleoyl-CoA to [14C]-triglyceride after 10 mins by scintillation counting

IC50 [nM]	Structure (SMILES)
141	CC(C)[C@H](NC(=O)c1cc(-c2ccc(NC(=O)Nc3ccccc3F)cc2)no1)C(=O)O
44	CC(C)[C@H](NC(=O)c1cc(-c2ccc(NC(=O)Nc3ccccc3Cl)cc2)no1)C(=O)O
282	CC(C)[C@H](NC(=O)c1ncc(-c2ccc(NC(=O)Nc3ccccc3Cl)cc2)o1)C(=O)O
45	CC(C)[C@H](NC(=O)c1cc(-c2ccc(NC(=O)Nc3cccc(Cl)c3)cc2)no1)C(=O)O
124	CC(C)[C@H](NC(=O)c1cc(-c2ccc(NC(=O)Nc3ccc(Cl)cc3)cc2)no1)C(=O)O
66	CC(C)[C@H](NC(=O)c1cc(-c2ccc(NC(=O)Nc3cccc(C(F)(F)F)c3)cc2)no1)C(=O)O
458	CC(C)[C@H](NC(=O)c1ncc(-c2ccc(NC(=O)Nc3cccc(C(F)(F)F)c3)cc2)o1)C(=O)O
86	CC(C)[C@H](NC(=O)c1cc(-c2ccc(NC(=O)Nc3ccc(Cl)cc3Oc3ccccc3)cc2)no1)C(=O)O
230	CC(C)[C@H](NC(=O)c1ncc(-c2ccc(NC(=O)Nc3ccc(Cl)cc3Oc3ccccc3)cc2)o1)C(=O)O
24	CC(C)[C@H](NC(=O)c1cc(-c2ccc(NC(=O)Nc3ccc(Cl)cc3F)cc2)no1)C(=O)O
62	CC(C)[C@H](NC(=O)c1cc(-c2ccc(NC(=O)Nc3ccc(F)cc3F)cc2)no1)C(=O)O
60	CC(C)[C@H](NC(=O)c1cc(-c2ccc(NC(=O)Nc3ccc(F)cc3)cc2)no1)C(=O)O
61	Cc1ccc(NC(=O)Nc2ccc(-c3cc(C(=O)N[C@H](C(=O)O)C(C)C)on3)cc2)cc1
84	Cc1ccccc1NC(=O)Nc1ccc(-c2cc(C(=O)N[C@H](C(=O)O)C(C)C)on2)cc1
75	CC(C)[C@H](NC(=O)c1cc(-c2ccc(NC(=O)Nc3ccc(F)c(F)c3)cc2)no1)C(=O)O
75	CC(C)[C@H](NC(=O)c1cc(-c2ccc(NC(=O)Nc3cc(F)cc(F)c3)cc2)no1)C(=O)O
141	CC(C)[C@H](NC(=O)c1cc(-c2ccc(NC(=O)Nc3cc(F)ccc3F)cc2)no1)C(=O)O
185	CC(C)[C@H](NC(=O)c1cc(-c2ccc(NC(=O)Nc3c(F)cccc3F)cc2)no1)C(=O)O
114	Cc1cc(C)cc(NC(=O)Nc2ccc(-c3cc(C(=O)N[C@H](C(=O)O)C(C)C)on3)cc2)c1
178	Cc1ccc(NC(=O)Nc2ccc(-c3cc(C(=O)N[C@H](C(=O)O)C(C)C)on3)cc2)cc1F
90	Cc1cc(F)ccc1NC(=O)Nc1ccc(-c2cc(C(=O)N[C@H](C(=O)O)C(C)C)on2)cc1
259	CC(C)[C@H](NC(=O)c1nc(-c2ccc(NC(=O)Nc3ccc(F)cc3F)cc2)no1)C(=O)O
120	CC(C)[C@H](NC(=O)c1cc(-c2ccc(Nc3nc4ccc(F)cc4s3)cc2)no1)C(=O)O
